In patent publication US9611267B2, “Substituted tricyclic compounds as FGFR inhibitors” (Incyte Corporation, priority 2012, dated 2017):

Experiments:
Type in all cases: biochemical
[1] = target: FGFR2 (Homo sapiens (Human), UniProt P21802); assay: FGFR enzymatic assay (FRET peptide phosphorylation), FGFR2; conditions: FGFR2 enzyme 0.01 nM, ATP 100 μM
Method in brief: (§1)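 Recombinant kinase was pre-incubated 5–10 min with serially diluted inhibitor in HEPES buffer (10 mM MgCl2, 5 mM DTT, pH 7.5; buffer described for FGFR3). Peptide phosphorylation ran 1 h at 25 °C and was detected by FRET after ~1 h equilibration. IC50 values come from variable-slope sigmoidal fits.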

[2] = target: FGFR1 (Homo sapiens (Human), UniProt P11362); assay: FGFR enzymatic assay (FRET peptide phosphorylation), FGFR1; conditions: FGFR1 enzyme 0.02 nM, ATP 210 μM
Method in brief: as §1

[3] = target: FGFR3 (Homo sapiens (Human), UniProt P22607); assay: FGFR enzymatic assay (FRET peptide phosphorylation), FGFR3; conditions: FGFR3 enzyme (Millipore), ATP 140 μM
Method in brief: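 FRET assay of peptide phosphorylation by FGFR3 in HEPES pH 7.5 buffer with MgCl2, EGTA, Tween-20 and DTT. Enzyme was pre-incubated 5-10 min with compound, and the reaction ran 1 hr at 25° C. IC50 came from a variable-slope sigmoidal fit.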

Measured: IC50

Sequence of FGFR3 (P22607 23-806): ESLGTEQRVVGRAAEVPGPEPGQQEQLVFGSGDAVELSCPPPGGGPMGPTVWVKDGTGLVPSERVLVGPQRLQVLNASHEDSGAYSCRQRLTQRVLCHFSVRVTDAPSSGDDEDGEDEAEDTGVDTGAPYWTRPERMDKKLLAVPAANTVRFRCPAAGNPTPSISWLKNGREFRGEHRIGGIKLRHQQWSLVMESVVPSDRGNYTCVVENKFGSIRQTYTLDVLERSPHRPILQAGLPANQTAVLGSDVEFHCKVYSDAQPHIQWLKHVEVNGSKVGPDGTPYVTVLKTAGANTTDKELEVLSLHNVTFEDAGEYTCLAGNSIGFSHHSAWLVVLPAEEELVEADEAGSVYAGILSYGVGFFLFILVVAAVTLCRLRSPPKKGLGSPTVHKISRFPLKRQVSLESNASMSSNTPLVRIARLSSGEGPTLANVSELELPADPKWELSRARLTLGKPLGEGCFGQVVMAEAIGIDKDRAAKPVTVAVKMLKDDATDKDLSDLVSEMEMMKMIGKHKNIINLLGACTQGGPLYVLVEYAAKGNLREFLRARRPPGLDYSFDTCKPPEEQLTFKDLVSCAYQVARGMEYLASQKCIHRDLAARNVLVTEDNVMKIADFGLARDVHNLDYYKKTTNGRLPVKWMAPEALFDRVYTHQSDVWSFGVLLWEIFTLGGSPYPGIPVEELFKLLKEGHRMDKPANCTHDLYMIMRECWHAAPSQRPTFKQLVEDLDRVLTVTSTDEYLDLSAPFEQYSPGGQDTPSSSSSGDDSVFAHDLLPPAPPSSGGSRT
Sequence of FGFR2 (P21802 22-821): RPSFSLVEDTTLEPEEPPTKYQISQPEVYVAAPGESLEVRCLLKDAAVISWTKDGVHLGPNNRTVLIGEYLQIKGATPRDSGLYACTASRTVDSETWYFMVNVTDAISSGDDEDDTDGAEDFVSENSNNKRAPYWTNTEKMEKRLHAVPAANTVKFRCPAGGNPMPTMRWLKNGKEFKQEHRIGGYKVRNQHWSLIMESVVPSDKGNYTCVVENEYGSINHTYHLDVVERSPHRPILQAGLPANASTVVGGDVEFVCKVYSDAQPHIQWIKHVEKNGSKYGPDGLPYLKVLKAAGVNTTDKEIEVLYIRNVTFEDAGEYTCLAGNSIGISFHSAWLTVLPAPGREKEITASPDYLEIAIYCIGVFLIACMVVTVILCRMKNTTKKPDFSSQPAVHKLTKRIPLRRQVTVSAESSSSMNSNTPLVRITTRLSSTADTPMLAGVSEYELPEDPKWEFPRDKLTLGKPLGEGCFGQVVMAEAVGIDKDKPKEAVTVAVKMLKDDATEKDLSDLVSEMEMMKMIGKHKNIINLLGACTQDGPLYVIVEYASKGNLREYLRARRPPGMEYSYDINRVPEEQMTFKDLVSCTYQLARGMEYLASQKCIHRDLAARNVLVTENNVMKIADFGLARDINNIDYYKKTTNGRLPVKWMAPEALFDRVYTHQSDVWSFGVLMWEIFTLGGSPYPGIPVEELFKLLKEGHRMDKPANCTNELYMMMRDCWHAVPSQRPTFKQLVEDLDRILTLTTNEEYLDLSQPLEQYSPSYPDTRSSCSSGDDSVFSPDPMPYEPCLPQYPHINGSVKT
Sequence of FGFR1 (P11362 22-822): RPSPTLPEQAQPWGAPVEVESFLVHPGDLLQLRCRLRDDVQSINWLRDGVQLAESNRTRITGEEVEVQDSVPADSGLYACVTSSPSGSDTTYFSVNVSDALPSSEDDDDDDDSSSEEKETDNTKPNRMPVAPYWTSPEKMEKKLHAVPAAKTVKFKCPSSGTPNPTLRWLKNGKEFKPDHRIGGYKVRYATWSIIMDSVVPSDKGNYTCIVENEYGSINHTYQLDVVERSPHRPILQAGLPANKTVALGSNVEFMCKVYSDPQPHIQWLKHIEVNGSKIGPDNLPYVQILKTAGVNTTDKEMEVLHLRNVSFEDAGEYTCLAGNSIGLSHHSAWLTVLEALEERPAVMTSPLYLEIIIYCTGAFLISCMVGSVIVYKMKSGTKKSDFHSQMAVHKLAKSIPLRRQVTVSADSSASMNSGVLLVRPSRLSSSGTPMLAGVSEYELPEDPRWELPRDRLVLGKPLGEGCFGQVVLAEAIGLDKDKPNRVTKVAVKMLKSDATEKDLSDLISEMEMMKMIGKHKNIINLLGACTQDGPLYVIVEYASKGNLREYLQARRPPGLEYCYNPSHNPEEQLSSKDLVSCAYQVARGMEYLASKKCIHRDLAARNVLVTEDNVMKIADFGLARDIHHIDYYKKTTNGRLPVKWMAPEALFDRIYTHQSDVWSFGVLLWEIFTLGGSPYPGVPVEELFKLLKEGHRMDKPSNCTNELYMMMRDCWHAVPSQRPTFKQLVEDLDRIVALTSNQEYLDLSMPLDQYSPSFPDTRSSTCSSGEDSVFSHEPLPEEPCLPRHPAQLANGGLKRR

COc1cc(OC)c(F)c(N2Cc3cnc4[nH]c(CN5CCC(F)(F)CC5)cc4c3N(C)C2=O)c1F [Example 112, 3-(2,6-difluoro-3,5-dimethoxyphenyl)-8-[(4,4-difluoropiperidin-1-yl)methyl]-1-methyl-1,3,4,7-tetrahydro-2H-pyrrolo[3′,2′:5,6]pyrido[4,3-d]pyrimidin-2-one]
< 100 nM: all assays above

COc1cc(OC)c(F)c(N2Cc3cnc4[nH]c(CN5CCCC(F)(F)C5)cc4c3N(C)C2=O)c1F [Example 113, 3-(2,6-difluoro-3,5-dimethoxyphenyl)-8-[(3,3-difluoropiperidin-1-yl)methyl]-1-methyl-1,3,4,7-tetrahydro-2H-pyrrolo[3′,2′:5,6]pyrido[4,3-d]pyrimidin-2-one]
< 100 nM: all assays above

COc1cc(OC)c(F)c(N2Cc3cnc4[nH]c(CCN5CCOCC5)cc4c3N(C)C2=O)c1F [Example 114, 3-(2,6-difluoro-3,5-dimethoxyphenyl)-1-methyl-8-(2-morpholin-4-ylethyl)-1,3,4,7-tetrahydro-2H-pyrrolo[3′,2′:5,6]pyrido[4,3-d]pyrimidin-2-one]
< 100 nM: all assays above

COc1cc(OC)c(F)c(N2Cc3cnc4[nH]c(CCN5CCC5)cc4c3N(C)C2=O)c1F [Example 115, 8-(2-azetidin-1-ylethyl)-3-(2,6-difluoro-3,5-dimethoxyphenyl)-1-methyl-1,3,4,7-tetrahydro-2H-pyrrolo[3′,2′:5,6]pyrido[4,3-d]pyrimidin-2-one]
< 100 nM: all assays above

COc1cc(OC)c(F)c(N2Cc3cnc4[nH]c(CCN5CCCC5)cc4c3N(C)C2=O)c1F [Example 116, 3-(2,6-difluoro-3,5-dimethoxyphenyl)-1-methyl-8-(2-pyrrolidin-1-ylethyl)-1,3,4,7-tetrahydro-2H-pyrrolo[3′,2′:5,6]pyrido[4,3-d]pyrimidin-2-one]
< 100 nM: all assays above

COc1cc(OC)c(F)c(N2Cc3cnc4[nH]c(CCCN5CCOCC5)cc4c3N(C)C2=O)c1F [Example 117, 3-(2,6-difluoro-3,5-dimethoxyphenyl)-1-methyl-8-(3-morpholin-4-ylpropyl)-1,3,4,7-tetrahydro-2H-pyrrolo[3′,2′:5,6]pyrido[4,3-d]pyrimidin-2-one]
< 100 nM: all assays above

COc1cc(OC)c(F)c(N2Cc3cnc4[nH]c(CCCN5CCN(C6CC6)CC5)cc4c3N(C)C2=O)c1F [Example 118, 8-[3-(4-cyclopropylpiperazin-1-yl)propyl]-3-(2,6-difluoro-3,5-dimethoxyphenyl)-1-methyl-1,3,4,7-tetrahydro-2H-pyrrolo[3′,2′:5,6]pyrido[4,3-d]pyrimidin-2-one]
< 100 nM: all assays above

CCN1CCN(C(=O)c2cc3c4c(cnc3[nH]2)CN(c2c(F)c(OC)cc(OC)c2F)C(=O)N4C)CC1 [Example 119, 3-(2,6-difluoro-3,5-dimethoxyphenyl)-8-[(4-ethylpiperazin-1-yl)carbonyl]-1-methyl-1,3,4,7-tetrahydro-2H-pyrrolo[3′,2′:5,6]pyrido[4,3-d]pyrimidin-2-one]
< 100 nM: all assays above

COc1cc(OC)c(F)c(N2Cc3cnc4[nH]c(C(=O)N5C[C@@H](C)N[C@@H](C)C5)cc4c3N(C)C2=O)c1F [Example 120, 3-(2,6-difluoro-3,5-dimethoxyphenyl)-8-{[(3R,5S)-3,5-dimethylpiperazin-1-yl]carbonyl}-1-methyl-1,3,4,7-tetrahydro-2H-pyrrolo[3′,2′:5,6]pyrido[4,3-d]pyrimidin-2-one]
< 100 nM: all assays above

CCN1C(=O)N(c2c(F)c(OC)cc(OC)c2F)Cc2cnc3[nH]ccc3c21 [Example 121, 3-(2,6-Difluoro-3,5-dimethoxyphenyl)-1-ethyl-1,3,4,7-tetrahydro-2H-pyrrolo[3′,2′:5,6]pyrido[4,3-d]pyrimidin-2-one]
< 100 nM: all assays above

COc1cc(OC)c(F)c(N2Cc3cnc4c(c3N(Cc3cccc(C#N)c3)C2=O)CC(=O)N4)c1F [Example 123, 3-{[3-(2,6-difluoro-3,5-dimethoxyphenyl)-2,8-dioxo-2,3,4,7,8,9-hexahydro-1H-pyrrolo[3′,2′:5,6]pyrido[4,3-d]pyrimidin-1-yl]methyl}benzonitrile]
< 100 nM: all assays above

COc1cc(OC)c(Cl)c(N2Cc3cnc4c(c3N(c3cccc(F)c3F)C2=O)CC(=O)N4)c1F [Example 124, 3-(2-chloro-6-fluoro-3,5-dimethoxyphenyl)-1-(2,3-difluorophenyl)-3,4,7,9-tetrahydro-1H-pyrrolo[3′,2′:5,6]pyrido[4,3-d]pyrimidine-2,8-dione]
< 100 nM: all assays above

COc1cc(OC)c(F)c(N2Cc3cnc4c(c3N(c3ccc(C#N)cc3F)C2=O)CC(=O)N4)c1F [Example 125, 4-[3-(2,6-difluoro-3,5-dimethoxyphenyl)-2,8-dioxo-2,3,4,7,8,9-hexahydro-1H-pyrrolo[3′,2′:5,6]pyrido[4,3-d]pyrimidin-1-yl]-3-fluorobenzonitrile]
< 100 nM: all assays above

CCN1C(=O)N(c2c(F)c(OC)cc(OC)c2F)Cc2cnc3[nH]c(CN4CCN(C)CC4)cc3c21 [Example 127, 3-(2,6-difluoro-3,5-dimethoxyphenyl)-1-ethyl-8-[(4-methylpiperazin-1-yl)methyl]-1,3,4,7-tetrahydro-2H-pyrrolo[3′,2′:5,6]pyrido[4,3-d]pyrimidin-2-one]
< 100 nM: all assays above

COc1cc(OC)c(F)c(N2Cc3cnc4[nH]c(CN5CCN(C)CC5)cc4c3N(C)C2=O)c1F [Example 129, 3-(2,6-difluoro-3,5-dimethoxyphenyl)-1-methyl-8-[(4-methylpiperazin-1-yl)methyl]-1,3,4,7-tetrahydro-2H-pyrrolo[3′,2′:5,6]pyrido[4,3-d]pyrimidin-2-one]
< 100 nM: all assays above

COc1cc(OC)c(F)c(N2Cc3cnc4[nH]c(CN5CCN(CCO)CC5)cc4c3N(C)C2=O)c1F [Example 130, 3-(2,6-difluoro-3,5-dimethoxyphenyl)-8-{[4-(2-hydroxyethyl)piperazin-1-yl]methyl}-1-methyl-1,3,4,7-tetrahydro-2H-pyrrolo[3′,2′:5,6]pyrido[4,3-d]pyrimidin-2-one]
< 100 nM: all assays above

COc1cc(OC)c(F)c(N2Cc3cnc4[nH]c(CN5CCN(CCC#N)CC5)cc4c3N(C)C2=O)c1F [Example 131, 3-(4-{[3-(2,6-difluoro-3,5-dimethoxyphenyl)-1-methyl-2-oxo-2,3,4,7-tetrahydro-1H-pyrrolo[3′,2′:5,6]pyrido[4,3-d]pyrimidin-8-yl]methyl}piperazin-1-yl)propanenitrile]
< 100 nM: all assays above

COc1cc(OC)c(F)c(N2Cc3cnc4[nH]c(CN5CCC(C#N)CC5)cc4c3N(C)C2=O)c1F [Example 132, 1-{[3-(2,6-difluoro-3,5-dimethoxyphenyl)-1-methyl-2-oxo-2,3,4,7-tetrahydro-1H-pyrrolo[3′,2′:5,6]pyrido[4,3-d]pyrimidin-8-yl]methyl}piperidine-4-carbonitrile]
< 100 nM: all assays above

COc1cc(OC)c(F)c(N2Cc3cnc4[nH]c(CN5CC[C@H](C#N)C5)cc4c3N(C)C2=O)c1F [Example 133, (3S)-1-{[3-(2,6-difluoro-3,5-dimethoxyphenyl)-1-methyl-2-oxo-2,3,4,7-tetrahydro-1H-pyrrolo[3′,2′:5,6]pyrido[4,3-d]pyrimidin-8-yl]methyl}pyrrolidine-3-carbonitrile]
< 100 nM: all assays above

COc1cc(OC)c(F)c(N2Cc3cnc4[nH]c(CNC5CCN(C)CC5)cc4c3N(C)C2=O)c1F [Example 134, 3-(2,6-difluoro-3,5-dimethoxyphenyl)-1-methyl-8-{[(1-methylpiperidin-4-yl)amino]methyl}-1,3,4,7-tetrahydro-2Hpyrrolo[3′,2′:5,6]pyrido[4,3-d]pyrimidin-2-one]
< 100 nM: all assays above

COc1cc(OC)c(F)c(N2Cc3cnc4[nH]c(CN[C@H]5CCOC5)cc4c3N(C)C2=O)c1F [Example 135, 3-(2,6-difluoro-3,5-dimethoxyphenyl)-1-methyl-8-{[(3S)-tetrahydrofuran-3-ylamino]methyl}-1,3,4,7-tetrahydro-2Hpyrrolo[3′,2′:5,6]pyrido[4,3-d]pyrimidin-2-one]
< 100 nM: all assays above
